Where a SMILES comes first, the peptide text is derived from it.
Experiments:
PDK1 = molecular target: T1, PDK1 (Homo sapiens, UniProt O15530); assay: Surface plasmon resonance binding of His-PDK1 to immobilised p70 S6K; conditions: 10 μM peptide
T1 construct: Full length PDK1 (residues 1-556); made in house; host or cells: 293 cells
T1 sequence (O15530 52-556): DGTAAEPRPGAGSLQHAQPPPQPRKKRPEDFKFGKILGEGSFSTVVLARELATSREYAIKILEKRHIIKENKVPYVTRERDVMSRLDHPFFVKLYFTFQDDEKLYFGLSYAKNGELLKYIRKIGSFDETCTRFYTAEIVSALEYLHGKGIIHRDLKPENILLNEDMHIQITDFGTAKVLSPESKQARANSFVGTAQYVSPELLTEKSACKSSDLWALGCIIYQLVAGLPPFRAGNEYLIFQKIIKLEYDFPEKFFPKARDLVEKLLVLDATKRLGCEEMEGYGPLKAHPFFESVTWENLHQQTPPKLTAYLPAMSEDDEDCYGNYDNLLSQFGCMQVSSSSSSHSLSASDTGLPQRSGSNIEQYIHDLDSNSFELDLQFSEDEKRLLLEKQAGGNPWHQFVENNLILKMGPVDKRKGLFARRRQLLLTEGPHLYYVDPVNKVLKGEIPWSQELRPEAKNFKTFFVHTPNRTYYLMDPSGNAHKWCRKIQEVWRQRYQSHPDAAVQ
Method: FIG. 6. Quantitative analysis of the binding of PDK1 to p70 S6K. Surface Plasmon Resonance measurements were carried out on a BiaCore instrument as described in the Methods. His-PDK1 was injected at the indicated concentrations over (A) 2000 RUs of p70 S6K-T2 (closed squares), or 412Ep70 S6K-T2 (closed circles) which was immobolised by amine coupling to a CM5 Sensorchip. Experiments carried out in the presence of either 10 μM wild type PIF peptide (hexagons) or 10 μM D978A mutant PIF peptide (triangles) are indicated. The responses at steady state binding were recorded. All data are single determinations from a representative experiment that was repeated at least 3 times with similar results.
Surface plasmon resonance measurements of PDK1 binding to p70 S6 kinase. p70 S6K-T2 and T412Ep70S6K-T2 mutant were amine coupled to a CM5 sensor chip (BIAcore AB) according to the manufacturer's instructions. The indicated concentrations of His-PDK1 was injected over the chip at a flow rate of 30 μl/min and the steady-state binding determined, in the presence or absence of PIF peptide. The apparent equilibrium dissociation constant (Kd) for the binding of His-PDK1 to p70 S6 kinase was determined by fitting the increase in steady-state binding upon increased PDK1 concentration to a rectangular hyperbola using SigmaPlot 4 (SPSS Inc). […]

p70 S6K = assay: IGF1-induced activation and Thr412 phosphorylation of HA-p70 S6K in co-transfected 293 cells; format: cell-based, human
Method: FIG. 3. PIF inhibits p70 S6K activation and phosphorylation at Thr252 and Thr412. 293 cells were co-transfected with constructs expressing the wild type (wt) full length HA-p70 S6K (A) or the full length HA-T412E p70 S6K (B) with either GST-PIF, GST-F977A-PIF, or GST. 24 h post transfection the cells were serum starved for 16 h and them stimulated for 40 min with 100 nM IGF 1. The cells were lysed and HA-p70 S6K was immunoprecipitated and assayed as described in methods. Protein from each lysate (10 μg for the HA blots or 20 μg for the T412-P blot) was electrophoresed on a 10% SDS/polyacrylamide gel and immunoblotted using HA-antibody or the T412-P antibody. The T412-P antibody was incubated with either the synthetic peptide (10 μg/ml) corresponding to residues 401 to 418 of p70 S6K phosphorylated at Thr412 (phosph-412E peptide), or the unphosphorylated peptide (de-phospho-Thr412 peptide). The T412-P antibody consistently recognises a protein termed “non specific band” in cell lysates which migrate at (75 kDa) derived from non transfected and transfected cells. […] It is not co-immunoprecipitated with HA-p70 S6K (date not shown). The HA-p70 S6K activities shown are the average ±SEM for a single experiment carried out in triplicate. Similar results were obtained in 8 separate experiments (A) and 2 experiments (B). The immunoblotting was carried out in 3 separate experiments with similar results.
Transient Transfection Experiments. The DNA constructs encoding for the wild type and mutant forms of HA-p70 S6K in the pMT2 vector used in this study have been described previously. […] The constructs used to express GST-PIF and the mutant GST-F977A-PIF [22] are in the pEBG2T vector. The empty pEBG2T vector was used to express GST protein in control experiments. DNA constructs used in this study were purified from bacteria using the Qiagen plasmid Mega kit according to the manufacturer's protocol.
293 cells cultured on 10 cm diameter dishes in Dulbecco's Modified Eagle's Medium containing 10% (by vol) foetal bovine serum, were transfected with 2 μg of DNA construct encoding either wild type or mutant HA-p70 S6K or HA-PKBα, and 10 μg of DNA construct encoding either GST-PIF, GST-F977A-PIF, GST, Myc-PDK1, kinase-dead Myc-PDK1, or the empty pCMV5 vector using a modified calcium phosphate method. 24 h post transfection the cells were deprived of serum for 16 h, and exposed to IGF1 (100 nM) for the time indicated. The cells were lysed in 1 ml of lysis buffer (50 mM Tris/HCl pH 7.5, 1 mM EDTA, 1 mM EGTA, 1% (by vol) Triton X-100, 1 mM sodium orthovanadate, 10 mM sodium β-glycerophosphate, 50 mM NaF, 5 mM sodium pyrophosphate, 1 μM microcystin-LR, 0.27 M sucrose and protease cocktail tablets), cleared by centrifugation, and 50 μg of protein was subjected to immunoprecipitation with anti HA monoclonal antibody. The protein concentrations of the lysates were determined by the Bradford method.
Kinase assays. The HA-p70 S6K or HA-PKBα immunoprecipitates were washed and assayed for kinase activity using the peptide Crosstide (GRPRTSSFAEG) as described previously for PKBα [28]. One unit of activity, U, was that amount which catalysed the phosphorylation of 1 nmol of substrate in one minute.
Immunoblotting for dephosphorylated and Thr412-phosphorylated p70 S6 kinase. Cell lysates were made 1% SDS and the indicated amounts of protein were subjected to SDS/Polyacrylamide gel electrophoresis, subsequently transferred to nitrocellulose and immunoblotted using the indicated monoclonal antibody or the T412-P phospho-specific antibody (0.4 μg/ml) in 50 mM Tris/HCl pH7.5, 0.15M NaCl, 0.5% (by vol) Tween and 10% (by mass) skimmed milk. Detection was performed using the enhanced chemiluminescence reagent (Amersham Pharmacia Biotech).

| Compound | effect on the interaction between PDK1 and 412E-p70 S6K-T2 (PDK1) | basal HA-p70 S6K activity (p70 S6K; 293 cells co-expressing HA-p70 S6K, unstimulated) | HA-p70 S6K activity after IGF1 stimulation (p70 S6K; 293 cells, 100 nM IGF1 40 min) | IGF1-induced phosphorylation of HA-p70 S6K at Thr412 (p70 S6K; 293 cells, T412-P antibody) | IGF1 induced activation and phosphorylation at Thr412 of the p70 S6K-T2 mutant (p70 S6K; 293 cells, data not shown) |
| --- | --- | --- | --- | --- | --- |
| CC[C@H](C)[C@H](NC(=O)[C@H](Cc1ccc(O)cc1)NC(=O)[C@H](CC(=O)O)NC(=O)[C@H](Cc1ccccc1)NC(=O)[C@H](CC(=O)O)NC(=O)[C@H](CCCNC(=N)N)NC(=O)[C@H](Cc1ccccc1)NC(=O)[C@H](CCSC)NC(=O)[C@H](CCC(=O)O)NC(=O)[C@H](CCC(N)=O)NC(=O)[C@H](CCC(=O)O)NC(=O)[C@H](CCC(=O)O)NC(=O)[C@H](CCC(=O)O)NC(=O)[C@H](CO)NC(=O)[C@H](CC(C)C)NC(=O)[C@@H](NC(=O)[C@H](CCCNC(=N)N)NC(=O)[C@@H]1CCCN1C(=O)[C@H](CCC(=O)O)NC(=O)[C@@H](N)CCCNC(=N)N)[C@@H](C)CC)C(=O)N[C@@H](C)C(=O)N[C@@H](CC(=O)O)C(=O)N[C@@H](Cc1c[nH]c2ccccc12)C(=O)N[C@@H](CS)C(=O)O [PIFtide] (H-REPRILSEEEQEMFRDFDYIADWC-OH; N-terminus and C-terminus assumed) | abolished | – | – | – | – |
| GST-PIF: glutathione S-transferase fused to the last 77 residues of PRK2 (PIF) | – | virtually undetectable | only a very slight increase | failed to induce | abolished |

Reference: US20080009025A1, “PROTEIN KINASE REGULATION” (priority 1999, published 2008)
